# Measurements reported in paper PMC4917279 (Journal of Medicinal Chemistry, 2016).
# Entries after “also recorded” stand apart in the source; their conditions may differ.
# Tests used:
# DMPK = molecular target: T1, DMPK (Homo sapiens, UniProt Q09013); assay: KINOMEscan; assay type: binding; conditions: read-out: %Ctrl @ 1000 nM
# T1 construct: purchased DiscoveRx KINOMEscan
# RIOK2 = molecular target: T2, RIOK2 (Homo sapiens, UniProt Q9BVS4); assay: KINOMEscan; assay type: binding; conditions: read-out: %Ctrl @ 1000 nM
# T2 construct: purchased DiscoveRx KINOMEscan
# [1] = molecular target: T3, TYK2(JH2domain-pseudokinase) (Homo sapiens, UniProt P29597); assay: KINOMEscan; assay type: binding; conditions: read-out: %Ctrl @ 1000 nM
# T3 construct: TYK2(JH2domain-pseudokinase); purchased DiscoveRx KINOMEscan
# LIMK1 = molecular target: T4, LIMK1 (Homo sapiens, UniProt P53667); assay: KINOMEscan; assay type: binding; conditions: read-out: %Ctrl @ 1000 nM
# T4 construct: purchased DiscoveRx KINOMEscan
# CDK7 = molecular target: T5, CDK7 (Homo sapiens, UniProt P50613); assay: KINOMEscan; assay type: binding; conditions: read-out: %Ctrl @ 1000 nM
# T5 construct: purchased DiscoveRx KINOMEscan
# CTK = molecular target: T6, CTK (Homo sapiens, UniProt P42679); assay: KINOMEscan; assay type: binding; conditions: read-out: %Ctrl @ 1000 nM
# T6 construct: purchased DiscoveRx KINOMEscan
# [2] = molecular target: T7, RPS6KA5(Kin.Dom.1-N-terminal) (Homo sapiens, UniProt O75582); assay: KINOMEscan; assay type: binding; conditions: read-out: %Ctrl @ 1000 nM
# T7 construct: RPS6KA5(Kin.Dom.1-N-terminal); purchased DiscoveRx KINOMEscan
# QSK = molecular target: T8, QSK (Homo sapiens, UniProt Q9Y2K2); assay: KINOMEscan; assay type: binding; conditions: read-out: %Ctrl @ 1000 nM
# T8 construct: purchased DiscoveRx KINOMEscan
# CDKL5 = molecular target: T9, CDKL5 (Homo sapiens, UniProt O76039); assay: KINOMEscan; assay type: binding; conditions: read-out: %Ctrl @ 1000 nM
# T9 construct: purchased DiscoveRx KINOMEscan
# CDK3 = molecular target: T10, CDK3 (Homo sapiens, UniProt Q00526); assay: KINOMEscan; assay type: binding; conditions: read-out: %Ctrl @ 1000 nM
# T10 construct: purchased DiscoveRx KINOMEscan
# MET = molecular target: T11, MET (Homo sapiens, UniProt P08581); assay: KINOMEscan; assay type: binding; conditions: read-out: %Ctrl @ 1000 nM
# T11 construct: purchased DiscoveRx KINOMEscan
# MAP4K4 = molecular target: T12, MAP4K4 (Homo sapiens, UniProt O95819); assay: KINOMEscan; assay type: binding; conditions: read-out: %Ctrl @ 1000 nM
# T12 construct: purchased DiscoveRx KINOMEscan
# [3] = molecular target: T13, ABL1(M351T)-phosphorylated (Homo sapiens, UniProt P00519, M351T); assay: KINOMEscan; assay type: binding; conditions: read-out: %Ctrl @ 1000 nM
# T13 construct: purchased DiscoveRx (KINOMEscan service)
# PKAC-alpha = molecular target: T14, PKAC-alpha (Homo sapiens, UniProt P17612); assay: KINOMEscan; assay type: binding; conditions: read-out: %Ctrl @ 1000 nM
# T14 construct: purchased DiscoveRx KINOMEscan
# PRKG2 = molecular target: T15, PRKG2 (Homo sapiens, UniProt Q13237); assay: KINOMEscan; assay type: binding; conditions: read-out: %Ctrl @ 1000 nM
# T15 construct: purchased DiscoveRx KINOMEscan
# [4] = molecular target: T16, RSK4(Kin.Dom.1-N-terminal) (Homo sapiens, UniProt Q9UK32); assay: KINOMEscan; assay type: binding; conditions: read-out: %Ctrl @ 1000 nM
# T16 construct: RSK4(Kin.Dom.1-N-terminal); purchased DiscoveRx KINOMEscan
# MARK1 = molecular target: T17, MARK1 (Homo sapiens, UniProt Q9P0L2); assay: KINOMEscan; assay type: binding; conditions: read-out: %Ctrl @ 1000 nM
# T17 construct: purchased DiscoveRx KINOMEscan
# ERK5 = molecular target: T18, ERK5 (Homo sapiens, UniProt Q13164); assay: KINOMEscan; assay type: binding; conditions: read-out: %Ctrl @ 1000 nM
# T18 construct: purchased DiscoveRx KINOMEscan
# TIE2 = molecular target: T19, TIE2 (Homo sapiens, UniProt Q02763); assay: KINOMEscan; assay type: binding; conditions: read-out: %Ctrl @ 1000 nM
# T19 construct: purchased DiscoveRx KINOMEscan
# MEK3 = molecular target: T20, MEK3 (Homo sapiens, UniProt P46734); assay: KINOMEscan; assay type: binding; conditions: read-out: %Ctrl @ 1000 nM
# T20 construct: purchased DiscoveRx KINOMEscan
# KIT(D816H) = molecular target: T21, KIT(D816H) (Homo sapiens, UniProt P10721, D816H); assay: KINOMEscan; assay type: binding; conditions: read-out: %Ctrl @ 1000 nM
# T21 construct: purchased DiscoveRx KINOMEscan
# YES = molecular target: T22, YES (Homo sapiens, UniProt P07947); assay: KINOMEscan; assay type: binding; conditions: read-out: %Ctrl @ 1000 nM
# T22 construct: purchased DiscoveRx KINOMEscan
# PIK3C2B = molecular target: T23, PIK3C2B (Homo sapiens, UniProt O00750); assay: KINOMEscan; assay type: binding; conditions: read-out: %Ctrl @ 1000 nM
# T23 construct: purchased DiscoveRx KINOMEscan
# [5] = molecular target: T24, ABL1(Q252H)-phosphorylated (Homo sapiens, UniProt P00519, Q252H); assay: KINOMEscan; assay type: binding; conditions: read-out: %Ctrl @ 1000 nM
# T24 construct: purchased DiscoveRx (KINOMEscan service)
# CAMK1D = molecular target: T25, CAMK1D (Homo sapiens, UniProt Q8IU85); assay: KINOMEscan; assay type: binding; conditions: read-out: %Ctrl @ 1000 nM
# T25 construct: purchased DiscoveRx KINOMEscan
# YSK1 = molecular target: T26, YSK1 (Homo sapiens, UniProt O00506); assay: KINOMEscan; assay type: binding; conditions: read-out: %Ctrl @ 1000 nM
# T26 construct: purchased DiscoveRx
# BRK = molecular target: T27, BRK (Homo sapiens, UniProt Q13882); assay: KINOMEscan; assay type: binding; conditions: read-out: %Ctrl @ 1000 nM
# T27 construct: purchased DiscoveRx KINOMEscan
# SMYD2 = SMYD2 (Homo sapiens, UniProt Q9NRG4); assay: Mechanism-of-inhibition studies (SPA, Cheng-Prusoff); assay type: biochemical; design: The SMYD2 full-length enzyme with an N-terminal 6xHis tag was expressed in Escherichia coli; made in house; host or cells: Escherichia coli
# LRRK2(G2019S) = molecular target: T28, LRRK2(G2019S) (Homo sapiens, UniProt Q5S007, G2019S); assay: KINOMEscan; assay type: binding; conditions: read-out: %Ctrl @ 1000 nM
# T28 construct: purchased DiscoveRx KINOMEscan
# MARK3 = molecular target: T29, MARK3 (Homo sapiens, UniProt P27448); assay: KINOMEscan; assay type: binding; conditions: read-out: %Ctrl @ 1000 nM
# T29 construct: purchased DiscoveRx KINOMEscan
# TRKA = molecular target: T30, TRKA (Homo sapiens, UniProt P04629); assay: KINOMEscan; assay type: binding; conditions: read-out: %Ctrl @ 1000 nM
# T30 construct: purchased DiscoveRx KINOMEscan
# VEGFR2 = molecular target: T31, VEGFR2 (Homo sapiens, UniProt P35968); assay: KINOMEscan; assay type: binding; conditions: read-out: %Ctrl @ 1000 nM
# T31 construct: purchased DiscoveRx KINOMEscan
# PIK3CA(Q546K) = molecular target: T32, PIK3CA(Q546K) (Homo sapiens, UniProt P42336, Q546K); assay: KINOMEscan; assay type: binding; conditions: read-out: %Ctrl @ 1000 nM
# T32 construct: purchased DiscoveRx KINOMEscan
# DYRK2 = molecular target: T33, DYRK2 (Homo sapiens, UniProt Q92630); assay: KINOMEscan; assay type: binding; conditions: read-out: %Ctrl @ 1000 nM
# T33 construct: purchased DiscoveRx KINOMEscan
# SLK = molecular target: T34, SLK (Homo sapiens, UniProt Q9H2G2); assay: KINOMEscan; assay type: binding; conditions: read-out: %Ctrl @ 1000 nM
# T34 construct: purchased DiscoveRx KINOMEscan
# PLK4 = molecular target: T35, PLK4 (Homo sapiens, UniProt O00444); assay: KINOMEscan; assay type: binding; conditions: read-out: %Ctrl @ 1000 nM
# T35 construct: purchased DiscoveRx KINOMEscan
# CAMK2G = molecular target: T36, CAMK2G (Homo sapiens, UniProt Q13555); assay: KINOMEscan; assay type: binding; conditions: read-out: %Ctrl @ 1000 nM
# T36 construct: purchased DiscoveRx KINOMEscan
# AKT3 = molecular target: T37, AKT3 (Homo sapiens, UniProt Q9Y243); assay: KINOMEscan; assay type: binding; conditions: read-out: %Ctrl @ 1000 nM
# T37 construct: purchased DiscoveRx KINOMEscan
# EGFR(E746-A750del) = molecular target: T38, EGFR(E746-A750del) (Homo sapiens, UniProt P00533, DEL746-750); assay: KINOMEscan; assay type: binding; conditions: read-out: %Ctrl @ 1000 nM
# T38 construct: purchased DiscoveRx KINOMEscan
# FES = molecular target: T39, FES (Homo sapiens, UniProt P07332); assay: KINOMEscan; assay type: binding; conditions: read-out: %Ctrl @ 1000 nM
# T39 construct: purchased DiscoveRx KINOMEscan
# T39 sequence (P07332 whole entry): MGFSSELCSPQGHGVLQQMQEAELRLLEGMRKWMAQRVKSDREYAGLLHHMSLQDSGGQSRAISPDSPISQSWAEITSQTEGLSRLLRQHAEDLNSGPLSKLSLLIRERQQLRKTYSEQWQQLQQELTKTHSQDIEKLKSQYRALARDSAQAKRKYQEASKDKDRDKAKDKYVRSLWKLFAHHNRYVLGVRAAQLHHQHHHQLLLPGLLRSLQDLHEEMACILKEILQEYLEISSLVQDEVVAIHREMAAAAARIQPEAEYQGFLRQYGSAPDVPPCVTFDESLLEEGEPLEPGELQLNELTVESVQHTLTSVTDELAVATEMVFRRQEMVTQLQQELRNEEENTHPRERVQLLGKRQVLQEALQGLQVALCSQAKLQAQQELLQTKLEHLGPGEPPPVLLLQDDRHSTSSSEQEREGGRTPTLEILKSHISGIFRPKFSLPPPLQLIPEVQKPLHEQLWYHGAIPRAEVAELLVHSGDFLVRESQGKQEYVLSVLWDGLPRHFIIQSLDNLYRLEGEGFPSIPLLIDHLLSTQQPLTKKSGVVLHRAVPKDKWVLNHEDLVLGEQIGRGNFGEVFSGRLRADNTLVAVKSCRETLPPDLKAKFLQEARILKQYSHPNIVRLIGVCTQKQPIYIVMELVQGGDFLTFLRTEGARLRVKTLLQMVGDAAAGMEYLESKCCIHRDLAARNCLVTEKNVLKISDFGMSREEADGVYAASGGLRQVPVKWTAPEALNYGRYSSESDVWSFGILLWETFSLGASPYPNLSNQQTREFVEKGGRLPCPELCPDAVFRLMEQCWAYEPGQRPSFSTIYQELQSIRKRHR
# SMYD2, sequence (Q9NRG4 whole entry): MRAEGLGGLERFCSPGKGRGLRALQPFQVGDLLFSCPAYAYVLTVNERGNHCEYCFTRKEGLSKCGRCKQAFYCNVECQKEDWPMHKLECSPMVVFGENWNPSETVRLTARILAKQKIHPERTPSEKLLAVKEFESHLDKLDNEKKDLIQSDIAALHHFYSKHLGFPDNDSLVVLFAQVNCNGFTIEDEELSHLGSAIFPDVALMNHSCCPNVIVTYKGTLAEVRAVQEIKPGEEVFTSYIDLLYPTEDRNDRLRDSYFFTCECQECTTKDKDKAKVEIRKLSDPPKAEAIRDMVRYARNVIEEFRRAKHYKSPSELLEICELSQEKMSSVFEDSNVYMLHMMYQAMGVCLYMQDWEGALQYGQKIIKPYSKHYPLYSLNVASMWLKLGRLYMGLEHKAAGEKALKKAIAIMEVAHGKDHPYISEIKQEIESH
# T12 sequence (O95819 whole entry): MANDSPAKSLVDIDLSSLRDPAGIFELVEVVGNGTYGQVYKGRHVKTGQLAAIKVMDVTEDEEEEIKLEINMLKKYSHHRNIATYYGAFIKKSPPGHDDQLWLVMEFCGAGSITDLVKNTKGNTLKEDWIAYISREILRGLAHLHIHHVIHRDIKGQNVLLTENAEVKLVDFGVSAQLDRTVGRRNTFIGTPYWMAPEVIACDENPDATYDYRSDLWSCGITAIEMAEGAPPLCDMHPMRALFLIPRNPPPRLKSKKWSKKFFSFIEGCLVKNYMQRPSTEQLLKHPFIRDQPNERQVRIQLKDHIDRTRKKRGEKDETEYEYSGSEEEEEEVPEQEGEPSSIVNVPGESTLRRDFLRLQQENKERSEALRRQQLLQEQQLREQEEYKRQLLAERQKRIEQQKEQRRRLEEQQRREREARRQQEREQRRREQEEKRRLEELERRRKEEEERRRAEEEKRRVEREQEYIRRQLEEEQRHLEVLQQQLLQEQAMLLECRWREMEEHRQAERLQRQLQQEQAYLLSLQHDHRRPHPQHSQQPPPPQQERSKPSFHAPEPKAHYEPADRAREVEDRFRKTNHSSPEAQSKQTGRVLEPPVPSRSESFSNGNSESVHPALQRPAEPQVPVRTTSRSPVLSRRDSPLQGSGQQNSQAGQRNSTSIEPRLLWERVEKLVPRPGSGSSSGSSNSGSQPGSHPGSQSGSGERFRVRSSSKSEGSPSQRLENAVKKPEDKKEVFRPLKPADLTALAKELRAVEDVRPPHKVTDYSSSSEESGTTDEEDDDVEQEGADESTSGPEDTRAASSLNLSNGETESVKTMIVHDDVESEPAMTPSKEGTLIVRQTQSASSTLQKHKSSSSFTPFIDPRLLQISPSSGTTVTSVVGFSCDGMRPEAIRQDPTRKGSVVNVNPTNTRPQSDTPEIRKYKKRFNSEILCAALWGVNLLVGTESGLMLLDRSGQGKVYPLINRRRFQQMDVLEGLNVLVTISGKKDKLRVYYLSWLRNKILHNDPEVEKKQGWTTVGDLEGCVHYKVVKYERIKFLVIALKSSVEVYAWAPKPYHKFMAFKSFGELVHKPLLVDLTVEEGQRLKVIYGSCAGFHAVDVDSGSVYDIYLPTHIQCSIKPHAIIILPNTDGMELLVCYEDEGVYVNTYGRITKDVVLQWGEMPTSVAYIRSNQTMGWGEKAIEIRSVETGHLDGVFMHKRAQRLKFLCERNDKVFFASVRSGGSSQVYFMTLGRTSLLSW
# T10 sequence (Q00526 whole entry): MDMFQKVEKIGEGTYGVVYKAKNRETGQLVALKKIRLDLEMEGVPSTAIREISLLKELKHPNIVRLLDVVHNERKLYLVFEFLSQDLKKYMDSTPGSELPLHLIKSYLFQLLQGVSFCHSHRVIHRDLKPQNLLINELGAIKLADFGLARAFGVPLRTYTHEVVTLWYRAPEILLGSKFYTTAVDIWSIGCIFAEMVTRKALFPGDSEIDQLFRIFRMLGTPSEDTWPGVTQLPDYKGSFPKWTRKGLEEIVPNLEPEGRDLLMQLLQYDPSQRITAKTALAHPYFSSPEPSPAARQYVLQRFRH
# T6 sequence (P42679 whole entry): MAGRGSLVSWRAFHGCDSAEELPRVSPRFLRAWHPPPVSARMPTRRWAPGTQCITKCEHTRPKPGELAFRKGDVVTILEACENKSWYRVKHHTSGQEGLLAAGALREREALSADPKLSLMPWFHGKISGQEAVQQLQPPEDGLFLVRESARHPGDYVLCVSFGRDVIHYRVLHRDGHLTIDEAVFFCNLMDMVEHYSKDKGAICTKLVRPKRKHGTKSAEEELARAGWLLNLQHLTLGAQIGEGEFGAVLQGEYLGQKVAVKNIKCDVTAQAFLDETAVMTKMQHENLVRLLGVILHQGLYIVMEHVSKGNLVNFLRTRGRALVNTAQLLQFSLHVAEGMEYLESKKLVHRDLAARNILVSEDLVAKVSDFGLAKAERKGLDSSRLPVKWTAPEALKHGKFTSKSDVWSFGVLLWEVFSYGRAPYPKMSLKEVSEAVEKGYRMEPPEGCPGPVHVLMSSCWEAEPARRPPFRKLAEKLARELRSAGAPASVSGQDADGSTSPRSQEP
# T19 sequence (Q02763 23-1124): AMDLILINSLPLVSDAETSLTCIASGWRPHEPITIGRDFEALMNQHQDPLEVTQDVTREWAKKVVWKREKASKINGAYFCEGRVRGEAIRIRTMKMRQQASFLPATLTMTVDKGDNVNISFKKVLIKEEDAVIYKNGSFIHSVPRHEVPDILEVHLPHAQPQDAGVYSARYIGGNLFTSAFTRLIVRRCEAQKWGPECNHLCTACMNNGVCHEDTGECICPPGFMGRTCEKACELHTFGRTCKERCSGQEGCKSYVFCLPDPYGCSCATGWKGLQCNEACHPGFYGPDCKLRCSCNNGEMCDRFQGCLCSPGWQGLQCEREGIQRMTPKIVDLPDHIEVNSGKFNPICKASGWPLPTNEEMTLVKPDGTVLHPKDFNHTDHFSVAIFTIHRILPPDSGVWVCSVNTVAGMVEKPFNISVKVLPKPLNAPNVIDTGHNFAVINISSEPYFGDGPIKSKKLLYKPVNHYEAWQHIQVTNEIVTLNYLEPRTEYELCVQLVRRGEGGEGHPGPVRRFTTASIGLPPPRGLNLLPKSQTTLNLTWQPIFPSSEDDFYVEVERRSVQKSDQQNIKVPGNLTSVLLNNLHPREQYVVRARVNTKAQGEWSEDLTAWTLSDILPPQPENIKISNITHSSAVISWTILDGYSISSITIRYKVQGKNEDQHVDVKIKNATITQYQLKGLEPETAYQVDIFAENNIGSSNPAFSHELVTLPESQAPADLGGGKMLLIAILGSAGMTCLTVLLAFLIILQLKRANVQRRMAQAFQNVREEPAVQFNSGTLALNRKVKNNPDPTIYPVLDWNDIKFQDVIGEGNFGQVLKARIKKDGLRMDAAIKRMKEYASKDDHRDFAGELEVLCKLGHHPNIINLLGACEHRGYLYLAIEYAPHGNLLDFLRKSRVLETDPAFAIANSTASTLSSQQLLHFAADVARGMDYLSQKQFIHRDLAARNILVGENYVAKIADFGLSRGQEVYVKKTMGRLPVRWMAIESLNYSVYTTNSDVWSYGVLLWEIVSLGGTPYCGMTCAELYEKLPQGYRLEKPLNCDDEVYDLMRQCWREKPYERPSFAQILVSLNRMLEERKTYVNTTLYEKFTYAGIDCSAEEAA
# T25 sequence (Q8IU85 whole entry): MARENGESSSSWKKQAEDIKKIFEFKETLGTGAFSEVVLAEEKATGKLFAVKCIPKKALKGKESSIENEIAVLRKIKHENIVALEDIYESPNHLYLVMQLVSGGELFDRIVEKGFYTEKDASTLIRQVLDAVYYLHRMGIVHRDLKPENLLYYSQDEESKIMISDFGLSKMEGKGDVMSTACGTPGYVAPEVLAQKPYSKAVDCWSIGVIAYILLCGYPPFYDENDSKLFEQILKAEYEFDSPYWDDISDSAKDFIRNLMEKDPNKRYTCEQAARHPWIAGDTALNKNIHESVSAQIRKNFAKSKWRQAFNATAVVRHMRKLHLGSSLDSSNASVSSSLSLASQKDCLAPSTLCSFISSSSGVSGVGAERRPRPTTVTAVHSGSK
compound,measurement,setting,value
CCN(C(=O)CO)[C@H]1CN(/C(=N\C#N)Nc2cccc(OC(F)F)c2)N=C1c1ccc(Cl)c(Cl)c1 [(S)-4],remaining binding at 1 µM,DMPK,100%
same,remaining binding at 1 µM,RIOK2,100%
same,remaining binding at 1 µM,[1],95%
same,remaining binding at 1 µM,LIMK1,100%
same,remaining binding at 1 µM,CDK7,98%
same,remaining binding at 1 µM,CTK,100%
same,remaining binding at 1 µM,[2],93%
same,remaining binding at 1 µM,QSK,94%
same,remaining binding at 1 µM,CDKL5,100%
same,remaining binding at 1 µM,CDK3,91%
same,remaining binding at 1 µM,MET,100%
same,remaining binding at 1 µM,MAP4K4,100%
same,remaining binding at 1 µM,[3],91%
same,remaining binding at 1 µM,PKAC-alpha,74%
same,remaining binding at 1 µM,PRKG2,84%
same,remaining binding at 1 µM,[4],92%
same,remaining binding at 1 µM,MARK1,71%
same,remaining binding at 1 µM,ERK5,80%
same,remaining binding at 1 µM,TIE2,100%
same,remaining binding at 1 µM,MEK3,100%
same,remaining binding at 1 µM,KIT(D816H),95%
same,remaining binding at 1 µM,YES,100%
same,remaining binding at 1 µM,PIK3C2B,100%
same,remaining binding at 1 µM,[5],100%
same,remaining binding at 1 µM,CAMK1D,90%
same,remaining binding at 1 µM,YSK1,90%
same,remaining binding at 1 µM,BRK,73%
same,Mode of inhibition / mode of action,SMYD2,"peptide-competitive, SAM-uncompetitive inhibitor; also recorded: substrate competitive"
same,remaining binding at 1 µM,LRRK2(G2019S),98%
same,remaining binding at 1 µM,MARK3,69%
same,remaining binding at 1 µM,TRKA,93%
same,remaining binding at 1 µM,VEGFR2,100%
same,remaining binding at 1 µM,PIK3CA(Q546K),86%
same,remaining binding at 1 µM,DYRK2,100%
same,remaining binding at 1 µM,SLK,66%
same,remaining binding at 1 µM,PLK4,56%
same,remaining binding at 1 µM,CAMK2G,89%
same,remaining binding at 1 µM,AKT3,100%
same,remaining binding at 1 µM,EGFR(E746-A750del),66%
same,remaining binding at 1 µM,FES,92%
